Experimental data as given in US4269834A, “Copper complexes of isoquinazolines” (priority 1977, dated 1981).
Converted amounts (≈) assume the structure as drawn. Read-outs that look alike come from different tables or passages of the source.

Columns and labels:
Type in all cases: cell-based
Mycoplasma gallisepticum = experiment: Activity against Mycoplasma gallisepticum (minimum inhibiting concentration); conditions: Table I; for MIC with Cu: media containing 50 μg/ml Cu^2+; for MIC: without added Cu
Excerpt: (§1) The following tables show some activities--expressed as minimum inhibiting concentration (MIC)--of the prepared compounds against various micro-organisms. The compounds are identified by reference to the Example in which they are described. When more than one compound is mentioned in an Example, they are distinguished by a number between parentheses, corresponding to their order of occurrence, for instance: VI (2) refers to the second compound prepared according to Example VI. The term "with Cu" refers to tests conducted in media containing 50 μg/ml Cu^2+.
(§2) The activities of the following compounds, not mentioned in the Examples, were also measured.

Spiroplasma citri = experiment: Activity against Spiroplasma citri (MIC); conditions: Table III; for MIC: without added Cu; for MIC with Cu: media containing 50 μg/ml Cu^2+
Excerpt: as §1, §2

M. synoviae = experiment: Activity against other Mycoplasma species: M. synoviae (MIC); conditions: Table II, with Cu (50 μg/ml Cu^2+)
Excerpt: as §1

M. gallisepticum K514 = experiment: Development of resistance of M. gallisepticum K514 in the presence of copper ions (repeated MIC determinations); conditions: 100 μg/ml Cu^2+; procedure repeated 12 times
Experimental: It was investigated whether M. gallisepticum K514 develops a resistance against the compounds of Examples IX (1), IX (2), VIIIe and XIIb in the presence of copper ions. The MIC's in the presence of 100 μg/ml Cu^2+ were determined in the usual way. The test tubes containing the highest concentration of each compound in which a considerable growth of micro-organism still occurred, were used for inoculation in a next determination. […] Consequently, no resistance is developed.

M. meleagridis = experiment: Activity against other Mycoplasma species: M. meleagridis (MIC); conditions: Table II, with Cu (50 μg/ml Cu^2+)
Excerpt: as §1

M. hyorhinis = experiment: Activity against other Mycoplasma species: M. hyorhinis (MIC); conditions: Table II, copper complexes, head 'with Cu' possibly not covering these columns
Excerpt: as §1

M. suipneumoniae = experiment: Activity against other Mycoplasma species: M. suipneumoniae (MIC); conditions: Table II, copper complexes, head 'with Cu' possibly not covering these columns
Excerpt: as §1

[1] = system: M. Hyorhinis (tylosin resistent); experiment: Activity against other Mycoplasma species: M. Hyorhinis (tylosin resistent) (MIC); conditions: Table II, copper complexes, head 'with Cu' possibly not covering these columns
Excerpt: as §1

[2] = Mycoplasmoides gallisepticum, read-out: MIC

Row | Structure (SMILES) | MIC with Cu (Mycoplasma gallisepticum) [µg/mL] | MIC (Mycoplasma gallisepticum; [2]) [µg/mL] | MIC with Cu (Spiroplasma citri) [µg/mL] | MIC with Cu (M. synoviae) [µg/mL] | Resistance development: change of MIC (M. gallisepticum K514) | MIC with Cu (M. meleagridis) [µg/mL] | further results
1 | Cc1cccc(-c2cc3ccccc3c(N)n2)n1.Cc1cccc(-c2cc3ccccc3c(N)n2)n1.O=[N+]([O-])[O-].[Cu+] [IIf, Bis[1-amino-3-(6-methyl-2-pyridyl)isoquinoline]cuprous nitrate] | 0.03 |  |  |  |  |  | MIC (Spiroplasma citri): 25 µg/mL
2 | Cc1nc(-c2ccccn2)cc2ccccc12 [XIIc (3), 1-methyl-3-(2-pyridyl)isoquinoline] | 0.06 | 6 (≈ 27.2 µM) | 0.2 |  |  |  | 
3 | Nc1nc(-c2ccccn2)cc2ccccc12 [XIIc (1), 1-amino-3-(2-pyridyl)isoquinoline] | 0.4 | > 100 | 0.2 |  |  |  | 
4 | Cc1cccc2cc(-c3ccccn3)nc(N)c12 [VIIIe] | 0.06 | 100 (≈ 425 µM) | 0.1 | 0.1 | without a significant increase of the MIC's | 0.05 | 
5 | CCCCCCCCCCc1ccc2c(N)nc(-c3ccccn3)cc2c1 [VIIIg] | 0.06 | 100 (≈ 277 µM) | 0.8 |  |  |  | 
6 | CCc1cccc(-c2cc3ccccc3c(N)n2)n1.Cl [IX (2), 1-amino-3-(6-ethyl-2-pyridyl) isoquinoline hydrochloride] | 0.02 |  | 0.2 | 0.05 | without a significant increase of the MIC's | 0.013 | 
7 | Cc1cccc(-c2cc3ccccc3c(C)n2)n1 [XIIb, 1-methyl-3(6-methyl-2-pyridyl)isoquinoline] | 0.03 |  | 0.05 | 0.1 | without a significant increase of the MIC's | 0.05 | 
8 | Cc1cccc(-c2cc3ccccc3c(N)n2)n1.Cl [IX (1), 1-amino-3-(6-methyl-2-pyridyl)-isoquinoline hydrochloride] | 0.03 | 100 | 0.4 | 0.025 | without a significant increase of the MIC's | 0.025 | 
9 | Nc1nc(-c2ccccn2)cc2c(Cl)cccc12 [VIIIh] | 0.05 | > 100 | 0.4 |  |  |  | 
10 | Cc1ccc2ccc3ccc(C)nc3c2n1.Cc1ccc2ccc3ccc(C)nc3c2n1.O.O=[N+]([O-])[O-].O=[N+]([O-])[O-].[Cu+2] [VI (1), bis(2,9-dimethyl-1,10phenanthroline)cupric nitrate monohydrate] |  |  |  |  |  |  | MIC (M. hyorhinis): 3 µg/mL; MIC (M. suipneumoniae): 3 µg/mL; MIC (Mycoplasma gallisepticum): 0.4 µg/mL; MIC [1]: 1 µg/mL; MIC (Spiroplasma citri): 50 µg/mL
11 | CCc1cccc2cc(-c3ccccn3)nc(N)c12 [VIIIf] | 0.05 | > 100 | 0.4 |  |  |  | 
12 | CCc1nc(-c2ccccn2)cc2ccccc12 [XIIId, 1-ethyl-3-(2-pyridyl)isoquinoline] | 0.06 |  | 0.2 |  |  |  | 
